# Experimental data from ChEMBL document CHEMBL1150622, “Three new modified limonoids from Khaya senegalensis” (J Nat Prod, 2002).
# Activity calls are given as the source filed them. No cut-off for these calls is given here.
# Legend:
# [1] = test system: Human immunodeficiency virus 1; experiment: Antiviral activity against HIV1 in human MT4 cells assessed as inhibition of virus-induced cytopathic effect at 100 ug/mL; type: functional, organism-based
# MT4 = experiment: Cytotoxicity against human MT4 cells at 100 ug/mL; type: cell-based
SMILES,Activity [1],Activity (MT4)
COC(=O)[C@]1(C)[C@@H]([C@@]2(C)C=CC(=O)C(C)(C)[C@@H]2CO[C@@H]2O[C@H](CO)[C@@H](O)[C@H](O)[C@H]2O)CC[C@@]2(C)[C@H](c3ccoc3)OC(=O)[C@H]3O[C@]321 [KHAYANOSIDE],inactive,Not Active
COC(=O)C[C@H]1[C@]2(C)C[C@]3(O)[C@H]4[C@@H](O[C@]56CC(=O)O[C@@H](c7ccoc7)[C@]5(C)CC[C@H]([C@]13C)[C@]46O)[C@H]2O [khayanolide D],inactive,Not Active
COC(=O)[C@H](O)[C@@H]1[C@@]2(C)[C@H]3CC[C@@]4(C)[C@H](c5ccoc5)OC(=O)C[C@@]45O[C@H]4C(=O)[C@@]1(C)C[C@]2(OC(C)=O)[C@@H]4[C@@]35O [khayanolide E],inactive,Not Active
